Consider 25 compounds from PubChem BioAssay AID1259408 (Genetic Toxicology Data Bank (GENE-TOX), 2018).

The source made the active and inactive calls. The rule behind the calls is not given here.

This data set has as its system GENE-TOX genotoxicity assays, various organisms and cells. Briefly: GENE-TOX mutagenicity studies. The settings on record: for call: Assay Type: In vivo carcinogenicity studies.
[1] abbreviates: Species/Cell Type: Bacillus subtilis (H17 vs M45), Assay Type: Rec-assay, spot test, DNA effects (bacterial DNA repair), Assay Code: REW+, Evaluation Type: Evaluation A (Pre-1980).
Setting [2] is: Species/Cell Type: Escherichia coli polA (W3119 vs P3478), Assay Type: Rec-assay, DNA effects (bacterial DNA repair), Assay Code: RE1T, Evaluation Type: Evaluation A (Pre-1980).
Where [3] appears, read: Species/Cell Type: Bacillus subtilis (H17 vs M45), Assay Type: Rec-assay, spot test, DNA effects (bacterial DNA repair), Assay Code: REWT, Evaluation Type: Evaluation A (Pre-1980).
[4] abbreviates: Species/Cell Type: Salmonella typhimurium (one or more of the five standard strains: TA98, TA100, TA1535, TA1537, and TA1538), Assay Type: Histidine reverse gene mutation, Ames assay, Assay Code: SALT, Evaluation Type: Evaluation A (Pre-1980).
The mark [5] stands for this setting: Species/Cell Type: Mammalian polychromatic erythrocytes, Assay Type: Micronucleus test, chromosome aberrations, Assay Code: MNTT, Evaluation Type: Evaluation B (Post-1980).
The mark [6] stands for this setting: Species/Cell Type: Human diploid fibroblasts, Assay Type: Unscheduled DNA synthesis (UDS) in vitro, DNA effects, Assay Code: UDH-, Evaluation Type: Evaluation A (Pre-1980).
[7] abbreviates: Species/Cell Type: Nonhuman, Assay Code: CCG+, Evaluation Type: Evaluation A (Pre-1980).
Where [8] appears, read: Species/Cell Type: Salmonella typhimurium (one or more of the five standard strains: TA98, TA100, TA1535, TA1537, and TA1538), Assay Type: Histidine reverse gene mutation, Ames assay, Assay Code: SAL+*, Activation: With metabolic activation, Evaluation Type: Evaluation A (Pre-1980).
Setting [9] is: Species/Cell Type: Drosophila melanogaster, Assay Type: Sex-linked recessive lethal gene mutation, Assay Code: SRL+, Evaluation Type: Evaluation A (Pre-1980).

As to `O=C(O)O`, the mutagenic call runs as follows: under setting [1], “active; positive”; under setting [2], “no conclusion”.
On to `O=S(=O)(O)c1cccc(Nc2nc(Nc3ccc(/C=C/c4ccc(Nc5nc(Nc6cccc(S(=O)(=O)O)c6)nc(N(CCO)CCO)n5)cc4S(=O)(=O)O)c(S(=O)(=O)O)c3)nc(N(CCO)CCO)n2)c1`, for which the mutagenic call (Species/Cell Type: Nonhuman, Assay Type: Sister-chromatid exchange (SCE) in vitro, Assay Code: SC2T, Evaluation Type: Evaluation A (Pre-1980)) is on record as “no conclusion”.
Consider `NC(=O)NO`, for which the mutagenic call is “inactive; negative” (Species/Cell Type: Chinese hamster lung (V79) cells, Assay Type: Forward gene mutation at the HPRT or ouabain locus, Assay Code: V79-, Evaluation Type: Evaluation A (Pre-1980)); “active; positive” (Species/Cell Type: Escherichia coli polA (W3119 vs P3478), Assay Type: Rec-assay, DNA effects (bacterial DNA repair), Assay Code: RE1+, Evaluation Type: Evaluation A (Pre-1980)); “active; positive” (Species/Cell Type: Human lymphocytes or leukocytes, Assay Type: Chromosome aberrations in vitro, Assay Code: CY7+, Evaluation Type: Evaluation A (Pre-1980)); “no conclusion” (Species/Cell Type: Mammalian polychromatic erythrocytes, Assay Type: Micronucleus test, chromosome aberrations, Assay Code: MNTT, Evaluation Type: Evaluation A (Pre-1980)); “inactive; negative” (Species/Cell Type: Mouse (BALB/c-3T3) cells, Assay Type: Cell transformation, Assay Code: CTB-, Evaluation Type: Evaluation A (Pre-1980)); “active; positive” (Species/Cell Type: Mouse, Sex: Male, Assay Type: Sperm morphology, Assay Code: SPI+, Evaluation Type: Evaluation A (Pre-1980)). Besides, the mutagenic call is, setting by setting: (Species/Cell Type: Nonhuman, Assay Type: Sister-chromatid exchange (SCE) in vitro, Assay Code: SC2+D, Dose Response: With dose response, Evaluation Type: Evaluation B (Post-1980)) “active; positive”; (Species/Cell Type: Nonhuman, Assay Type: Sister-chromatid exchange (SCE) in vitro, Assay Code: SC2-, Evaluation Type: Evaluation A (Pre-1980)) “inactive; negative”; (Species/Cell Type: Saccharomyces cerevisiae, Assay Type: Mitotic recombination or gene conversion, Assay Code: YEC+, Evaluation Type: Evaluation A (Pre-1980)) “active; positive”; (Species/Cell Type: Syrian hamster embryo (SA7/SHE) cells, Assay Type: Cell transformation, viral enhanced, Assay Code: CT7+, Evaluation Type: Evaluation A (Pre-1980)) “active; positive”; (Species/Cell Type: Tradescantia species, Assay Type: Chromosome aberrations, Assay Code: TRC+, Evaluation Type: Evaluation A (Pre-1980)) “active; positive”. Besides, the call (Species/Cell Type: Nonhuman, Assay Code: CCGT, Evaluation Type: Evaluation A (Pre-1980)) is given as “no conclusion”.
Regarding `c1nncnn1`, the mutagenic call under setting [3] is “no conclusion”.
Turning to `CCCCCc1cc(O)c2c(c1)OC(C)(C)[C@@H]1CC=C(C)C[C@@H]21`, the mutagenic call by setting is: (Species/Cell Type: Fischer rat embryo (RLV/1706) cells, Assay Type: Cell transformation, viral enhanced, Assay Code: CTR-, Evaluation Type: Evaluation A (Pre-1980)) “inactive; negative”; (Species/Cell Type: Human lymphocytes, Assay Type: Micronucleus test in vitro, chromosome aberrations, Assay Code: MN7+, Evaluation Type: Evaluation A (Pre-1980)) “active; positive”.
Take `Cc1occc(=O)c1O`: the mutagenic call reads like this: (Species/Cell Type: Human lymphocytes, Assay Type: Sister-chromatid exchange (SCE) in vitro, Assay Code: SCL+D, Dose Response: With dose response, Evaluation Type: Evaluation B (Post-1980)) “active; positive”; (Species/Cell Type: Human, Assay Type: Sister-chromatid exchange (SCE) in vitro, Assay Code: SC1+D, Dose Response: With dose response, Evaluation Type: Evaluation B (Post-1980)) “active; positive”.
Regarding `Nc1ccc(-c2nc(N(CCO)CCO)c3ccccc3n2)s1`, the mutagenic call under setting [4] is “no conclusion”.
In the case of `Cc1cc2c3c(ccc2c2ccccc12)C(=O)CC3`, the mutagenic call under setting [4] was “no conclusion”.
In the case of `CC(=O)Nc1nc(-c2ccc([N+](=O)[O-])s2)cs1`, under setting [4], the mutagenic call was “no conclusion”.
Still for that read-out and setting: to `O=C(O)c1ccccc1N=Nc1c(O)c(S(=O)(=O)O)cc2cc(S(=O)(=O)O)ccc12` belongs “no conclusion”; to `Clc1ccc(Cl)c(-c2cc(Cl)ccc2Cl)c1`, “no conclusion”.
With `COc1ccc(-c2oc3c(OC)c(OC)c(OC)cc3c(=O)c2OC)cc1`, under setting [1], the mutagenic call was “active; positive”.
With `c1ncc2[nH]cnc2n1`, the mutagenic call (Species/Cell Type: Escherichia coli polA (W3119 vs P3478), Assay Type: Rec-assay, DNA effects (bacterial DNA repair), Assay Code: RE1-, Evaluation Type: Evaluation A (Pre-1980)) is “inactive; negative”.
In the case of `CC(C)NCC(O)c1ccc(NS(C)(=O)=O)cc1` (stereo not drawn), the mutagenic call under setting [5] was “no conclusion”.
Turning to `C[N+](=O)[O-]`, the mutagenic call under setting [5] was “no conclusion”.
On to `Nc1c2ccccc2nc2ccccc12`, for which the mutagenic call is “inactive; negative” under setting [6]; “active; positive” (Species/Cell Type: Nonhuman, Assay Type: Sister-chromatid exchange (SCE) in vitro, Assay Code: SC2+, Evaluation Type: Evaluation B (Post-1980)); “active; positive” (Species/Cell Type: Salmonella typhimurium (one or more of the five standard strains: TA98, TA100, TA1535, TA1537, and TA1538), Assay Type: Histidine reverse gene mutation, Ames assay, Assay Code: SAL+, Evaluation Type: Evaluation A (Pre-1980)).
As for `c1ccc2c(c1)ccc1nc3ccc4ccccc4c3cc12`, the mutagenic call is “active; positive” (Species/Cell Type: Fischer rat embryo (RLV/1706) cells, Assay Type: Cell transformation, viral enhanced, Assay Code: CTR+, Evaluation Type: Evaluation A (Pre-1980)) and “active; positive” under setting [8]. In addition, the call under setting [7] is “active; positive”.
Regarding `O=C[C@H](O)[C@@H](O)[C@H](O)[C@H](S)CO`, under “Species/Cell Type: Rodents, Sex: Male, Assay Type: Dominant lethal test, Assay Code: DLT-, Evaluation Type: Evaluation A (Pre-1980)”, the mutagenic call is “inactive; negative”.
Turning to `Cc1cc(Cl)ccc1OCC(=O)O`, the mutagenic call (Species/Cell Type: Drosophila melanogaster, Assay Type: Aneuploidy, sex chromosome gain, chromosome aberrations, Assay Code: DAG-M-F, Evaluation Type: Evaluation A (Pre-1980)) is “inactive; negative”; the mutagenic call (Species/Cell Type: Drosophila melanogaster, Assay Type: Aneuploidy, whole sex chromosome loss, chromosome aberrations, Assay Code: DAC-M-F, Evaluation Type: Evaluation A (Pre-1980)) is “inactive; negative”; the mutagenic call under setting [9] was “active; positive”; the mutagenic call (Species/Cell Type: Saccharomyces cerevisiae, Assay Type: Reverse gene mutation, Assay Code: YER+, Evaluation Type: Evaluation A (Pre-1980)) is “active; positive”; the mutagenic call (Species/Cell Type: Salmonella typhimurium, Serratia marcesens, Assay Type: Forward and reverse gene mutation, host-mediated assay, Assay Code: HM2-, Evaluation Type: Evaluation A (Pre-1980)) was “inactive; negative”.
As for `CCOS(=O)(=O)OCCOS(=O)(=O)OCC`, the mutagenic call (Species/Cell Type: Schizosaccharomyces pombe, Assay Type: Reverse gene mutation, Assay Code: YEZ+, Evaluation Type: Evaluation A (Pre-1980)) is “active; positive”.
For `NC(=S=O)c1ccccc1`, for the setting “Species/Cell Type: Mammalian polychromatic erythrocytes, Assay Type: Micronucleus test, chromosome aberrations, Assay Code: MNT+U, Dose Response: Unconfirmed positive response, Evaluation Type: Evaluation B (Post-1980)”, the mutagenic call was “active; positive”.
On to `CCCCCN(CCCCO)N=O`, for which the mutagenic call under setting [8] is “active; positive”.
For `CC(C)NCC(O)COc1cccc2[nH]ccc12` (stereo not drawn), under setting [5], the mutagenic call is given as “no conclusion”.
Consider `C/[N+]([O-])=N/CO`, for which the mutagenic call runs as follows: (Species/Cell Type: Chinese hamster lung (V79) cells, Assay Type: Forward gene mutation at the HPRT or ouabain locus, Assay Code: V79+, Evaluation Type: Evaluation A (Pre-1980)) “active; positive”; under setting [9], “active; positive”; (Species/Cell Type: Salmonella typhimurium, Assay Type: Forward and reverse gene mutation, body fluid assay, Assay Code: BFU+, Evaluation Type: Evaluation A (Pre-1980)) “active; positive”; (Species/Cell Type: Syrian hamster embryo (SHE) cells, Assay Type: Cell transformation, clonal assay, Assay Code: CTC+, Evaluation Type: Evaluation A (Pre-1980)) “active; positive”. Besides, the call under setting [7] is “active; positive”.
Regarding `CN(C)C(=O)Nc1ccc(Cl)cc1`, the mutagenic call was “no conclusion” under setting [3]; “no conclusion” (Species/Cell Type: Drosophila melanogaster, Assay Type: Sex-linked recessive lethal gene mutation, Assay Code: SRLT, Evaluation Type: Evaluation A (Pre-1980)); “inactive; negative” (Species/Cell Type: Escherichia coli WP2 UVRA, Assay Type: Tryptophan reverse gene mutation, Assay Code: WPU-*, Activation: With metabolic activation, Evaluation Type: Evaluation A (Pre-1980)); “no conclusion” under setting [2]; “active; positive” (Species/Cell Type: Hordeum vulgare (barley), Assay Type: Chromosome aberrations, Assay Code: HOC+, Evaluation Type: Evaluation A (Pre-1980)); “inactive; negative” under setting [6]. For the same compound, the mutagenic call (Species/Cell Type: Saccharomyces cerevisiae, Assay Type: Mitotic recombination or gene conversion, Assay Code: YEH-, Evaluation Type: Evaluation A (Pre-1980)) is “inactive; negative”. Where the note is “Species/Cell Type: Nonhuman, Assay Code: CCG+L, Evaluation Type: Evaluation A (Pre-1980)”, the call is “active; positive”.
